{"source": "patent US5079257A", "about": "“Indoloquinone compounds” (priority 1986, dated 1992)", "key": {"L1210 cells [1]": {"system": "L1210 cells", "experiment": "L1210 activity in clonogenic assay (TNO Rijswijk)", "format": "cell-based", "settings": "Mus musculus, L1210, 192 h; 8 days continuous exposure, TNO Rijswijk; read-out: ID-50 L1210, clonogenic assay", "excerpt": "The indoloquinones II (formula II) have been tested in respect of their cytotoxic activity against L1210 cells and R-1 cells (Rhabdomyosarcoma Cells) in a bioliquid assay at the department of oncology of the Free University of Amsterdam (Table I). In addition to this seven compounds (E.O. 1, E.O. 2, E.O. 4, E.O. 7, E.O. 9, E.O. 16 and E.O. 17) have been tested on L1210 activity in a clonogenic assay at TNO, Rijswijk. Further, the lowest active doses of the compounds E.O. 1, E.O. 2, E.O. 4 and E.O. 9 have been determined at TNO Rijswijk, according to the method described by Lamberts et al. [Oncology, 40, 301 (1983)]. (Table II). Eight indoloquinones (E.O. 1, E.O. 2, E.O. 4, E.O. 4A, E.O. 8, E.O. 9, E.O. 33 and E.O. 35) have been tested in a panel of five human tumour lines (TNO Rijswijk; Table III). From the latter group three indoloquinones (E.O. 1, E.O. 4 and E.O. 9) have been selected for a cytotoxicity study, involving five slowly growing human tumour lines (University of Freiburg; Table IV).\nThe L1210 clonogenic assay used was an improved variant of the method described earlier by H. MARTIN et al. [Cancer Chemother., Rep., 51 451 (1967)] and L. M. van Putten et al. [Cancer Treat. Rep., 60, 373 (1976)] for the growth into colonies of L1210 cells in a soft agar medium. From a suspension culture ~100 L1210 Cells (0.1 ml) were plated into […] culture dishes (Falcon), containing 1 ml of soft agar growth medium and the compound to be tested in appropriate concentrations. The soft agar growth medium consisted of Dulbecco medium supplemented with 15.8% horse serum, 60 μmol 2-mercapto-ethanol, 20 mg/ml L-asparagine and 0.3% bacto agar (Difco).\nThe culture dishes were incubated at 37° C. in an atmosphere of 1% CO2 in humidified air for 8 days. After this period of continuous drug exposure, colonies were counted and dose-effect curves were made."}, "[2]": {"experiment": "Half-wave reduction potentials / polarography (University of Utrecht)", "format": "physicochemical", "excerpt": "*The halve wave reduction potentials (E1/2) have been determined at the\nPharmaceutical Laboratory of University of Utrecht. Only the first\n(quinone) reduction potential has been given.\nAdditional evidence for the occurrence of a bioreductive activation mechanism during the cytotoxic action of indoloquinones (II) was obtained via electrochemical studies, which have been carried out at the Pharmaceutical Laboratory of the University of Utrecht. […]"}, "in vivo": {"experiment": "in vivo", "set-up": "species or system mice", "settings": "mouse, IP, single dose, suspension in carboxymethyl cellulose (2%)", "method": "The acute toxicity experiments were carried out with male C5 Black/Rij X CBA/Rij Fl hybrid mice at TNO, Rijswijk. The drugs were administrated IP as suspensions in carboxymethyl cellulose (2%) as a single dose at the first day."}, "L1210": {"system": "L1210", "experiment": "In vivo L1210 experiments (TNO Rijswijk)", "set-up": "species or system mice", "settings": "250 mg/kg IP single dose", "method": "The in vivo L1210 experiments were carried out in male Balb/c X DBA.2 Fl hybrid mice at TNO, Rijswijk.\nIn these experiments also, the drugs were administered IP as suspensions in carboxymethyl cellulose […] as a single dose at the first day."}, "[3]": {"system": "R-1 cells (Rhabdomyosarcoma Cells)", "experiment": "R-1 activity (bioliquid assay), cytotoxicity", "format": "cell-based", "settings": "Rhabdomyosarcoma cell", "how_it_was_run": "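Rhabdomyosarcoma R-1 cells (~10^6 per dish) in Dulbecco's medium with 10% FCS were exposed to drug solution, which was then replaced by fresh medium. Cells were trypsinized after 48 hours and counted electronically.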"}, "L1210 cells [4]": {"system": "L1210 cells", "experiment": "L1210 activity (bioliquid assay), cytotoxicity", "format": "cell-based", "settings": "Mus musculus", "how_it_was_run": "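Suspension culture in RPMI with 15% FCS and 2-mercaptoethanol (60 μmol). Continuous compound exposure for 48 hours at 37° C under 5% CO2 in humidified air. Cell numbers then counted on an electronic microcell counter.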"}, "MCF7 breast cancer cells": {"system": "MCF7 breast cancer cells", "experiment": "In vitro panel of human tumour lines (TNO): MCF-7; further: key: -: no inhibition of cell growth; +: total cell-kill", "format": "cell-based", "settings": "about 72 hours", "method": "(§1) Compounds E.O. 1, E.O. 2, E.O. 4, E.O. 4A, E.O. 8, E.O. 9, […], E.O. 33, and E.O. 35 were tested for their activity against five human tumour cell lines at the Radiobiological Institute TNO Rijswijk.\n(§2) The new in vitro prescreen uses human tumour clones; it was set up by Dr. P. Lelieveld at TNO Rijswijk and comprises testing compounds in a bioliquid assay for their cytostatic activity against the following five human tumour lines:\n(§3) After a continuous exposure to the drugs to be tested and to Adriamycin in `24 well tissue culture clusters, type 3524 (Costar)`, the remaining cells are fixed and stained. Using increasing drug concentrations the inhibiting concentration can be estimated qualitatively.\n(§4) Cells: the human tumour cells are maintained in Dulbecco's medium supplemented with 10 percent foetal calf serum.\n(§5) M and W cell suspensions: 10^5 cells/ml.\n(§6) The cells were grafted into 16 mm wells for 48 hours (0.5 ml cell suspension per well was used).\n(§7) Drugs: the compound to be tested was dissolved in appropriate concentrations in a mixture of Hepes-buffered Hanks' balanced salt solution and ethanol. The drug solutions (0.05 ml) were added to the different wells. The final ethanol concentration in each well was less than one percent.\n(§8) The cells were continuously incubated with the compound under test at 37° in an atmosphere of 10 percent CO2 in humidified air for about 72 hours.\n(§9) Determination of the inhibiting dose: the cells were fixed and stained with a solution of crystal violet in methanol/formaldehyde."}, "[5]": {"experiment": "Cytotoxic activity (test not specified)", "format": "cell-based"}, "WiDr cells; colon tumour": {"system": "WiDr cells; colon tumour", "experiment": "In vitro panel of human tumour lines (TNO): WiDr", "format": "cell-based", "settings": "about 72 hours", "method": "as §1, §2, §3, §4, §5, §6, §7, §8, §9"}, "[6]": {"system": "T 24 cells; bladder carcinoma", "experiment": "In vitro panel of human tumour lines (TNO): T 24", "format": "cell-based", "settings": "about 72 hours", "method": "as §1, §2, §3, §4\n(§10) A, T and Z cell suspensions: 5·10^4 cells/ml\nas §6, §7, §8, §9"}, "[7]": {"system": "A 204 cells; rhabdomyosarcoma", "experiment": "In vitro panel of human tumour lines (TNO): A 204", "format": "cell-based", "settings": "about 72 hours", "method": "as §1, §2, §3, §4, §10, §6, §7, §8, §9"}, "IgR37 cells melanoma": {"system": "IgR37 cells melanoma", "experiment": "In vitro panel of human tumour lines (TNO): IgR-37", "format": "cell-based", "settings": "about 72 hours", "method": "as §1, §2, §3, §4, §10, §6, §7, §8, §9"}, "[8]": {"settings": "in vitro and in mice; cited from earlier work"}}, "note": "Like-named read-outs stand apart in the source and are kept apart here. Wherever in vitro activity score, A 204 is given: key: -: no inhibition of cell growth; +: total cell-kill. Wherever in vitro activity score, IgR-37 is given: key: -: no inhibition of cell growth; +: total cell-kill. Wherever in vitro activity score, T 24 is given: key: -: no inhibition of cell growth; +: total cell-kill. Wherever in vitro activity score, WiDr is given: key: -: no inhibition of cell growth; +: total cell-kill."}
{"molecule": "COC1=CC(=O)c2c(c(CO)c(/C=C/CO)n2C)C1=O", "note": "[E.O. 7, 3-Hydroxymethyl-5-methoxy-1-methyl-2-[1H-indole-4,7-dione]prop-β-en-α-ol]", "values": [{"measurement": "IC50", "setting": "L1210 cells [1]", "result": 2.2, "unit": "µg/mL"}, {"measurement": "direct current polarogram", "setting": "[2]; DC-polarography", "result": "a reduction wave representing the reversible reduction of the benzoquinone nucleus"}, {"measurement": "half-wave potential E1.2, wave I", "setting": "[2]; pH = 8 vs Ag/AgCl", "result": -367, "unit": "mV"}, {"measurement": "LD50", "setting": "in vivo", "result": "> 100", "unit": "mg/kg"}, {"measurement": "% T/C", "setting": "L1210", "result": "tox."}, {"measurement": "IC50", "setting": "[3]; Table I, bioliquid assay, read-out: ID-50 R-1", "result": 4.2, "unit": "µg/mL"}, {"measurement": "IC50", "setting": "L1210 cells [4]; L1210, Table I, bioliquid assay, 48 hours, read-out: ID-50 L1210", "result": 0.5, "unit": "µg/mL"}]}
{"molecule": "COC(=O)/C=C/c1c(C(=O)OC)c2c(n1C)C(=O)C=C(N1CC1)C2=O", "note": "[E.O. 22, Methyl 5-aziridino-3-methoxycarbonyl-1-methyl-2-[1H-indole-4,7-dione]acrylate]", "values": [{"measurement": "in vitro activity score, MCF-7", "setting": "MCF7 breast cancer cells; 0.01 μg/ml", "result": "-"}, {"measurement": "in vitro activity score, MCF-7", "setting": "MCF7 breast cancer cells; 0.1 μg/ml", "result": "-"}, {"measurement": "E1/2, halve wave reduction potential", "setting": "[2]; Table IA, only the first (quinone) reduction potential", "result": -179, "unit": "mV"}, {"measurement": "cytotoxic activities", "setting": "[5]", "result": "high cytotoxic activities"}, {"measurement": "in vitro activity score, WiDr", "setting": "WiDr cells; colon tumour; 0.01 μg/ml", "result": "-"}, {"measurement": "in vitro activity score, WiDr", "setting": "WiDr cells; colon tumour; 0.1 μg/ml", "result": "-"}, {"measurement": "IC50", "setting": "[3]; read-out: ID-50 R-1, Table IA, para-indoloquinone diesters", "result": 0.5, "unit": "µg/mL"}, {"measurement": "in vitro activity score, T 24", "setting": "[6]; 0.01 μg/ml", "result": "-"}, {"measurement": "in vitro activity score, T 24", "setting": "[6]; 0.1 μg/ml", "result": "-"}, {"measurement": "in vitro activity score, T 24", "setting": "[6]; 1.0 μg/ml", "result": "+"}, {"measurement": "in vitro activity score, A 204", "setting": "[7]; 0.01 μg/ml", "result": "-"}, {"measurement": "in vitro activity score, A 204", "setting": "[7]; 0.1 μg/ml", "result": "-"}, {"measurement": "in vitro activity score, A 204", "setting": "[7]; 1.0 μg/ml", "result": "+"}, {"measurement": "in vitro activity score, IgR-37", "setting": "IgR37 cells melanoma; 0.01 μg/ml", "result": "-"}, {"measurement": "in vitro activity score, IgR-37", "setting": "IgR37 cells melanoma; 0.1 μg/ml", "result": "-"}, {"measurement": "in vitro activity score, IgR-37", "setting": "IgR37 cells melanoma; 1.0 μg/ml", "result": "+"}, {"measurement": "IC50", "setting": "L1210 cells [4]; L1210, 48 h, read-out: ID-50 L1210, Table IA, para-indoloquinone diesters", "result": 0.01, "unit": "µg/mL"}]}
{"molecule": "COC1=C(C)C(=O)c2c(c(COC(N)=O)c3n2CCC3)C1=O", "note": "[7-methoxymitosene]", "values": [{"measurement": "antibacterial activity", "setting": "[8]", "result": "important antibacterial activity in vitro and in mice"}]}
